Laboratory results published in patent US12023319B2, “Carboxylic acid aromatic amides” (priority 2016, dated 2024).

target: T1, human Bradykinin B1 receptor (Homo sapiens, UniProt P46663); assay: Calcium flux assay (FLIPR), CHO-K1 cells expressing human Bradykinin B1 receptor, absence of 0.1% BSA (hB1 free IC50); type: cell-based; conditions: absence of 0.1% BSA in assay buffer
T1 construct: host or cells: CHO-K1
T1 sequence (P46663 1-353): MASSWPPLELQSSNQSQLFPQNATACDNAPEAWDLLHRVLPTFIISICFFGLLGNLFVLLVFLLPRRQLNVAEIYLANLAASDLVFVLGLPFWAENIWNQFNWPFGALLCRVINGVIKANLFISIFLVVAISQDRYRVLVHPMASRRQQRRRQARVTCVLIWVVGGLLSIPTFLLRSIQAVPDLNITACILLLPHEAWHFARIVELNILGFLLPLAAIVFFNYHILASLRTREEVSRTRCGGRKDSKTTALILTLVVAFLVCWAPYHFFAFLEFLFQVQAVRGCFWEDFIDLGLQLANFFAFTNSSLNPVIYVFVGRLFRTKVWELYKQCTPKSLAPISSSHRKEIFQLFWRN
Procedure, shortened: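 Peak FLIPR fluorescence (538 nm) after B1 agonist peptide addition gave IC50s, scaled between DMSO and full block by 20 µM Lys-(Des-Arg-Leu)-Bradykinin. Compounds were preincubated 30 min at 28° C with calcium-dye-loaded CHO-K1 cells expressing human B1, at 8 concentrations in triplicate, 1% DMSO final.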

Row | Structure (SMILES) | IC50 [nM]
1 | Cc1cc(NC(=O)C2(c3ccc(OC(F)(F)F)cc3F)CC2)cc(C(=O)O)c1-c1ccc(C(F)F)nc1 [Example 110, 2-[6-(Difluoromethyl)pyridin-3-yl]-5-[({1-[2-fluoro-4-(trifluoromethoxy)phenyl]cyclopropyl}carbonyl)amino]-3-methylbenzoic acid] | 580
2 | Cc1cc(NC(=O)C2(c3ccc(C(F)(F)F)cc3F)CC2)cc(C(=O)O)c1-c1ccc(C(F)(F)F)nc1 [Example 111, 5-[({1-[2-Fluoro-4-(trifluoromethyl)phenyl]cyclopropyl}carbonyl)amino]-3-methyl-2-[6-(trifluoromethyl)pyridin-3-yl]benzoic acid] | 2400
3 | CCC(F)(F)c1ccc(-c2c(C)cc(NC(=O)C3(c4ccc(C(F)(F)F)cc4F)CC3)cc2C(=O)O)cn1 [Example 112, 2-[6-(1,1-Difluoropropyl)pyridin-3-yl]-5-[({1-[2-fluoro-4-(trifluoromethyl)phenyl]cyclopropyl}carbonyl)amino]-3-methylbenzoic acid] | 240
4 | CCC(F)(F)c1ccc(-c2c(C)cc(NC(=O)C3(c4ccc(OC(F)(F)F)cc4F)CC3)cc2C(=O)O)cn1 [Example 113, 2-[6-(1,1-Difluoropropyl)pyridin-3-yl]-5-[({1-[2-fluoro-4-(trifluoromethoxy)phenyl]cyclopropyl}carbonyl)amino]-3-methylbenzoic acid] | 120
5 | CCCn1cc(-c2ccc(NC(=O)C3(c4ccc(C(F)(F)F)cc4F)CC3)cc2C(=O)O)cn1 [Example 114, 5-[({1-[2-Fluoro-4-(trifluoromethyl)phenyl]cyclopropyl}carbonyl)amino]-2-(1-propyl-1H-pyrazol-4-yl)benzoic acid] | 85
6 | CCCn1cc(-c2ccc(NC(=O)C3(c4ccc(OC(F)(F)F)cc4F)CC3)cc2C(=O)O)cn1 [Example 115, 5-[({1-[2-Fluoro-4-(trifluoromethoxy)phenyl]cyclopropyl}carbonyl)amino]-2-(1-propyl-1H-pyrazol-4-yl)benzoic acid] | 120
7 | CC(C)Cn1cc(-c2ccc(NC(=O)C3(c4ccc(F)cc4F)CC3)cc2C(=O)O)cn1 [Example 116, 5-({[1-(2,4-Difluorophenyl)cyclopropyl]carbonyl}amino)-2-(1-isobutyl-1H-pyrazol-4-yl)benzoic acid] | 210
8 | CC(C)Cn1cc(-c2ccc(NC(=O)C3(c4ccc(Cl)cc4F)CC3)cc2C(=O)O)cn1 [Example 117, 5-({[1-(4-Chloro-2-fluorophenyl)cyclopropyl]carbonyl}amino)-2-(1-isobutyl-1H-pyrazol-4-yl)benzoic acid] | 56
9 | Cc1ccc(C2(C(=O)Nc3ccc(-c4cnn(CC(C)C)c4)c(C(=O)O)c3)CC2)c(F)c1 [Example 118, 5-({[1-(2-Fluoro-4-methylphenyl)cyclopropyl]carbonyl}amino)-2-(1-isobutyl-1H-pyrazol-4-yl)benzoic acid] | 130
10 | O=C(O)c1cc(NC(=O)C2(c3ccc(C(F)(F)F)cc3F)CC2)ccc1-c1cnn(C2CC2)c1 [Example 124, 2-(1-Cyclopropyl-1H-pyrazol-4-yl)-5-[({1-[2-fluoro-4-(trifluoromethyl)phenyl]cyclopropyl}carbonyl)amino]benzoic acid] | 200
11 | O=C(O)c1cc(NC(=O)C2(c3ccc(OC(F)(F)F)cc3F)CC2)ccc1-c1cnn(C2CC2)c1 [Example 125, 2-(1-Cyclopropyl-1H-pyrazol-4-yl)-5-[({1-[2-fluoro-4-(trifluoromethoxy)phenyl]cyclopropyl}carbonyl)amino]benzoic acid] | 170
12 | O=C(O)c1cc(NC(=O)C2(c3ccc(C(F)(F)F)cc3F)CC2)ccc1-n1cc(C2CCC2)cn1 [Example 129, 2-(4-Cyclobutyl-1H-pyrazol-1-yl)-5-[({1-[2-fluoro-4-(trifluoromethyl)phenyl]cyclopropyl}carbonyl)amino]benzoic acid] | 620
13 | O=C(O)c1cc(NC(=O)C2(c3ccc(OC(F)(F)F)cc3F)CC2)ccc1-n1cc(C2CCC2)cn1 [Example 130, 2-(4-Cyclobutyl-1H-pyrazol-1-yl)-5-[({1-[2-fluoro-4-(trifluoromethoxy)phenyl]cyclopropyl}carbonyl)amino]benzoic acid] | 590
14 | CC[C@H](C)n1cc(-c2ccc(NC(=O)C3(c4ccc(OC(F)(F)F)cc4F)CC3)cc2C(=O)O)cn1 [Example 132, 2-{1-[(2S)-Butan-2-yl]-1H-pyrazol-4-yl}-5-[({1-[2-fluoro-4-(trifluoromethoxy)phenyl]cyclopropyl}carbonyl)amino]benzoic acid] | 56
15 | CC[C@@H](C)n1cc(-c2ccc(NC(=O)C3(c4ccc(C(F)(F)F)cc4F)CC3)cc2C(=O)O)cn1 [Example 133, 2-{1-[(2R)-Butan-2-yl]-1H-pyrazol-4-yl}-5-[({1-[2-fluoro-4-(trifluoromethyl)phenyl]cyclopropyl}carbonyl)amino]benzoic acid] | 59
16 | Cn1cc(-c2c(F)cc(NC(=O)C3(c4ccc(OC(F)(F)F)cc4F)CC3)cc2C(=O)O)cn1 [Example 137, 3-Fluoro-5-[({1-[2-fluoro-4-(trifluoromethoxy)phenyl]cyclopropyl}carbonyl)amino]-2-(1-methyl-1H-pyrazol-4-yl)benzoic acid] | 70

These reach a lower IC50. Values come first.

Row | IC50 [nM] | Structure (SMILES)
17 | 25 | O=C(O)c1cc(NC(=O)C2(c3ccc(C(F)(F)F)cc3F)CC2)ccc1-c1cnn(CC2CCC2)c1 [Example 119, 2-[1-(Cyclobutylmethyl)-1H-pyrazol-4-yl]-5-[({1-[2-fluoro-4-(trifluoromethyl)phenyl]cyclopropyl}carbonyl)amino]benzoic acid]
18 | 17 | O=C(O)c1cc(NC(=O)C2(c3ccc(OC(F)(F)F)cc3F)CC2)ccc1-c1cnn(CC2CCC2)c1 [Example 120, 2-[1-(Cyclobutylmethyl)-1H-pyrazol-4-yl]-5-[({1-[2-fluoro-4-(trifluoromethoxy)phenyl]cyclopropyl}carbonyl)amino]benzoic acid]
19 | 18 | O=C(O)c1cc(NC(=O)C2(c3ccc(C(F)(F)F)cc3F)CC2)ccc1-c1cnn(C2CCCC2)c1 [Example 121, 2-(1-Cyclopentyl-1H-pyrazol-4-yl)-5-[({1-[2-fluoro-4-(trifluoromethyl)phenyl]cyclopropyl}carbonyl)amino]benzoic acid]
20 | 13 | O=C(O)c1cc(NC(=O)C2(c3ccc(C(F)(F)F)cc3F)CC2)ccc1-c1cnn(C2CCCCC2)c1 [Example 122, 2-(1-Cyclohexyl-1H-pyrazol-4-yl)-5-[({1-[2-fluoro-4-(trifluoromethyl)phenyl]cyclopropyl}carbonyl)amino]benzoic acid]
21 | 22 | O=C(O)c1cc(NC(=O)C2(c3ccc(OC(F)(F)F)cc3F)CC2)ccc1-c1cnn(C2CCCCC2)c1 [Example 123, 2-(1-Cyclohexyl-1H-pyrazol-4-yl)-5-[({1-[2-fluoro-4-(trifluoromethoxy)phenyl]cyclopropyl}carbonyl)amino]benzoic acid]
22 | 14 | O=C(O)c1cc(NC(=O)C2(c3ccc(C(F)(F)F)cc3F)CC2)cc(F)c1-c1cnn(CC2CC2)c1 [Example 126, 2-[1-(Cyclopropylmethyl)-1H-pyrazol-4-yl]-3-fluoro-5-[({1-[2-fluoro-4-(trifluoromethyl)phenyl]cyclopropyl}carbonyl)amino]benzoic acid]
23 | 11 | O=C(O)c1cc(NC(=O)C2(c3ccc(OC(F)(F)F)cc3F)CC2)cc(F)c1-c1cnn(CC2CC2)c1 [Example 127, 2-[1-(Cyclopropylmethyl)-1H-pyrazol-4-yl]-3-fluoro-5-[({1-[2-fluoro-4-(trifluoromethoxy)phenyl]cyclopropyl}carbonyl)amino]benzoic acid]
24 | 37 | Cc1ccc(-c2c(F)cc(NC(=O)C3(c4ccc(C(F)(F)F)cc4F)CC3)cc2C(=O)O)cn1 [Example 128, 3-Fluoro-5-[({1-[2-fluoro-4-(trifluoromethyl)phenyl]cyclopropyl}carbonyl)amino]-2-(6-methylpyridin-3-yl)benzoic acid]
25 | 50 | CC[C@H](C)n1cc(-c2ccc(NC(=O)C3(c4ccc(C(F)(F)F)cc4F)CC3)cc2C(=O)O)cn1 [Example 131, 2-{1-[(2S)-Butan-2-yl]-1H-pyrazol-4-yl}-5-[({1-[2-fluoro-4-(trifluoromethyl)phenyl]cyclopropyl}carbonyl)amino]benzoic acid]
26 | 44 | CC[C@@H](C)n1cc(-c2ccc(NC(=O)C3(c4ccc(OC(F)(F)F)cc4F)CC3)cc2C(=O)O)cn1 [Example 134, 2-{1-[(2R)-Butan-2-yl]-1H-pyrazol-4-yl}-5-[({1-[2-fluoro-4-(trifluoromethoxy)phenyl]cyclopropyl}carbonyl)amino]benzoic acid]
27 | 33 | CC[C@H](C)n1cc(-c2c(F)cc(NC(=O)C3(c4ccc(C(F)(F)F)cc4F)CC3)cc2C(=O)O)cn1 [Example 135, 2-{1-[(2S)-Butan-2-yl]-1H-pyrazol-4-yl}-3-fluoro-5-[({1-[2-fluoro-4-(trifluoromethyl)phenyl]cyclopropyl}carbonyl)amino]benzoic acid]
28 | 28 | CC[C@@H](C)n1cc(-c2c(F)cc(NC(=O)C3(c4ccc(C(F)(F)F)cc4F)CC3)cc2C(=O)O)cn1 [Example 136, 2-{1-[(2R)-Butan-2-yl]-1H-pyrazol-4-yl}-3-fluoro-5-[({1-[2-fluoro-4-(trifluoromethyl)phenyl]cyclopropyl}carbonyl)amino]benzoic acid]
